Measurements reported in the CheMixHub viscosity set.

Assay: xn = mol fraction of the nth substance listed

NC(N)=O + CCO
viscosity [mPa·s], 101 kPa
Settings	293.15 K	298.15 K	303.15 K	308.15 K	313.15 K	318.15 K	323.15 K
x1 = 0.02956	1.328	1.204	1.095	0.999	0.914	0.839	0.772
x1 = 0.03764	1.386	1.251	1.134	1.031	0.94	0.859	0.788
x1 = 0.04782	1.476	1.329	1.202	1.09	0.991	0.904	0.828

COCCOCCO + CCOC(=O)OCC
298.15 K, 101.33 kPa
Settings	viscosity [mPa·s]
x1 = 0.0177	0.765
x1 = 0.0409	0.784
x1 = 0.0525	0.794
x1 = 0.0688	0.809
x1 = 0.0808	0.819
x1 = 0.0974	0.834
x1 = 0.1182	0.856
x1 = 0.1376	0.878
x1 = 0.1665	0.911
x1 = 0.1973	0.949
x1 = 0.2247	0.98
x1 = 0.26	0.984
x1 = 0.3011	1.095
x1 = 0.3362	1.148
x1 = 0.4104	1.282
x1 = 0.438	1.337
x1 = 0.4644	1.394
x1 = 0.4835	1.436
x1 = 0.5151	1.511
x1 = 0.5529	1.61
x1 = 0.5929	1.721
x1 = 0.6445	1.874
x1 = 0.6774	1.978
x1 = 0.7326	2.167
x1 = 0.7642	2.295
x1 = 0.8034	2.456
x1 = 0.8312	2.576
x1 = 0.861	2.709
x1 = 0.8942	2.87
x1 = 0.9328	3.065
x1 = 0.9487	3.15
x1 = 0.9554	3.189
x1 = 0.9613	3.221

Cc1ccc(Cl)cc1 + CCOC(=O)c1ccccc1
viscosity [mPa·s], 101 kPa
Settings	303.15 K	313.15 K
x2 = 0.0536	0.745	0.65
x2 = 0.1068	0.729	0.632
x2 = 0.1858	0.73	0.629
x2 = 0.2507	0.751	0.644
x2 = 0.3392	0.806	0.686
x2 = 0.4157	0.876	0.739
x2 = 0.4913	0.959	0.801
x2 = 0.592	1.092	0.904
x2 = 0.6657	1.201	0.991
x2 = 0.762	1.359	1.109
x2 = 0.8333	1.484	1.206
x2 = 0.907	–	1.315
x2 = 0.9071	1.623	–
x2 = 0.9524	1.713	1.385

COCCOCCO + CCOC(C)(C)C
viscosity [mPa·s], 101 kPa
Settings	293.15 K	298.15 K	303.15 K
x2 = 0.0501	3.519	3.231	2.865
x2 = 0.1	3.158	2.906	2.589
x2 = 0.1459	2.847	2.627	2.351
x2 = 0.1998	2.518	2.328	2.097
x2 = 0.2556	2.218	2.06	1.862
x2 = 0.3031	1.991	1.855	1.683
x2 = 0.3521	1.784	1.669	1.52
x2 = 0.4004	1.605	1.506	1.377
x2 = 0.4511	1.438	1.355	1.244
x2 = 0.4998	1.299	1.227	1.13
x2 = 0.5628	1.142	1.082	1.001
x2 = 0.5997	1.062	1.007	0.934
x2 = 0.6621	0.942	0.894	0.833
x2 = 0.6997	0.879	0.834	0.779
x2 = 0.7411	0.816	0.773	0.725
x2 = 0.7995	0.736	0.697	0.657
x2 = 0.8401	0.687	0.651	0.616
x2 = 0.8998	0.623	0.591	0.56
x2 = 0.9498	0.575	0.545	0.518
